Test results reported in paper PMC5007978, “A chemical with proven clinical safety rescues Down-syndrome-related phenotypes in through DYRK1A inhibition” (Disease Models & Mechanisms, 2016).

What was measured:
DYRK1A [1] = molecular target: T1, DYRK1A (Homo sapiens, UniProt Q13627); design: expressed in transfected cells; host or cells: 293T cells; method as in Ogawa et al., 2010; details: ref Ogawa et al., 2010; cited from earlier work
[2] = system: calcineurin-NFAT signaling; assay: NFAT-RE promoter luciferase reporter assay (NRE-Luc) in 293T cells; type: cell-based; details: IM and PMA (10 nM), 1, 3 and 10 μM
Procedure: Fig. 5. […] Firefly luciferase activities were measured using One-Glo reagents. Luciferase activity in the sample with reporter plasmid alone was set to 1, and the relative luciferase activities were calculated. Means±s.d. were determined from two independent experiments.
Treatment with IM and phorbol 12-myristate 13-acetate (PMA) induced a dramatic increase in luciferase activity (∼20 fold) as a result of the nuclear translocation of NFATc1 and the subsequent transcriptional activation (Fig. 5B). In this situation, the overexpression of DYRK1A suppressed the stimulatory effect of IM and PMA by 75%, resulting in a 4.5-fold increase in luciferase activity compared with that of the control (Fig. 5B).
The firefly luciferase reporter assay was performed using a One-Glo Assay System (Promega) according to the manufacturer's instructions. The transcriptional activity of NFATc1 in 293T cells was measured with a reporter vector (pGL4.30 luc2P/NFAT-RE/Hygro) (Promega) that expresses the firefly luciferase gene under the control of an NFAT-RE promoter. 293T cells were transfected with the DYRK1A-expressing plasmid and reporter plasmid. On the next day, cells were treated with IM (2.5 μM) and phorbol-12-myristate-13-acetate (10 nM) along with the indicated amounts of inhibitors. Cells were further incubated for 8 h and then cell lysates were harvested to measure luciferase activity.

DYRK4 = molecular target: T2, DYRK4 (Homo sapiens, UniProt Q9NR20); assay: In vitro kinase assay, recombinant human DYRK4 (Life Technologies); type: biochemical
T2 construct: purchased Life Technologies (Kinase Profiler service)
T2 sequence (Q9NR20 1-520): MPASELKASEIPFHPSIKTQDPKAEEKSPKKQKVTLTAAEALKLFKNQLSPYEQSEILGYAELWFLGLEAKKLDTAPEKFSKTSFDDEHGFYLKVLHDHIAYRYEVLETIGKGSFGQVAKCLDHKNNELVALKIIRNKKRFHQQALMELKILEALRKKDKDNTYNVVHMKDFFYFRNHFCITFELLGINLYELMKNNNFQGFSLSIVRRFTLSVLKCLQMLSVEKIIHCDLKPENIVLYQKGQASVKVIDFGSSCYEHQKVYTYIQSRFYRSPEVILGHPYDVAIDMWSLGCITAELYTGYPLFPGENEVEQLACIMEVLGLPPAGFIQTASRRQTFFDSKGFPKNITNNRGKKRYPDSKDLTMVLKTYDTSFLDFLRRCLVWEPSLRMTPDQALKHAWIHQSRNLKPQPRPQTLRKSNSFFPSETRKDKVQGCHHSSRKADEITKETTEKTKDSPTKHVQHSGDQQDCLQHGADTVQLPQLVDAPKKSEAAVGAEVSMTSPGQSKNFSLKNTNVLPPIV

[3] = system: mnb-overexpressing Drosophila; assay: Wing vein (LV5) defect rescue in mnb-overexpressing flies (MS1096-gal4); type: in vivo, Drosophila melanogaster
DYRK3 = molecular target: T3, DYRK3 (Homo sapiens, UniProt O43781); assay: In vitro kinase assay, recombinant human DYRK3 (Life Technologies); type: biochemical
T3 construct: purchased Life Technologies (Kinase Profiler service)
T3 sequence (O43781 1-588): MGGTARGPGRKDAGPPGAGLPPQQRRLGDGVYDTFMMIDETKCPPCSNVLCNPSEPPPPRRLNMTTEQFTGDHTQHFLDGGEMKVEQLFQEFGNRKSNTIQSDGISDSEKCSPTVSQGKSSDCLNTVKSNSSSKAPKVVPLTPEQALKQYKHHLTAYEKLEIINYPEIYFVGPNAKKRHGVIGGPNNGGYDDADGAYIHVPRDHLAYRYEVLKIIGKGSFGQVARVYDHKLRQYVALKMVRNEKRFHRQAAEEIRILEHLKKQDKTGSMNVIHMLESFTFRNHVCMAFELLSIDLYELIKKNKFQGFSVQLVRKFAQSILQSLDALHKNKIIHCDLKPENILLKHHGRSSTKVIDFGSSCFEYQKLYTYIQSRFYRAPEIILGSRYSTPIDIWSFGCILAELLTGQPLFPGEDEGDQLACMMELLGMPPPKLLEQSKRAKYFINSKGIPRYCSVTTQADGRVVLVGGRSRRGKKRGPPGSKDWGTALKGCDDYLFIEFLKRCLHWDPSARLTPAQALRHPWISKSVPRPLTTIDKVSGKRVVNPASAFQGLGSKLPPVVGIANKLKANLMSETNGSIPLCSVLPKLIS

DYRK1A [4] = molecular target: T1, DYRK1A; assay: DYRK1A-mediated Tau (T212) phosphorylation in transfected 293T cells, western blot; type: cell-based; design: expressed in transfected cells; host or cells: 293T cells; details: 6 h treatment, western blot, estimated, read-out: IC50 on Tau phosphorylation (T212) induced by DYRK1A overexpression

SMILES	DYRK1A inhibitory activity compared with harmine (DYRK1A [1])	NFATc1-dependent transcriptional activation (NRE-Luc) suppressed by DYRK1A overexpression [2]	IC50 (DYRK4)	concentration required for a similar rescue of wing (LV5) defect [3]	IC50 (DYRK3)	IC50 (DYRK1A [4])
CCN1/C(=C/C(C)=O)Sc2ccc(O)cc21 [INDY]	slightly weaker inhibitory activities than harmine	dose-dependently derepressed				
COc1ccc2c(c1)[nH]c1c(C)nccc12 [harmine]		dose-dependently derepressed	5880 nM	10 to 25 µM	563 nM	
CCN1/C(=C/C(C)=O)Sc2ccc(OC(C)=O)cc21 [proINDY]	slightly weaker inhibitory activities than harmine	dose-dependently derepressed				~2000 nM
